Laboratory results as given in patent publication US12624018B1, “Inhibitors of RIPK2 and medical uses thereof” (Odyssey Therapeutics, Inc., priority 2022, dated 2026).
Like-named read-outs stand apart in the source and are kept apart here.

Experiments:
human NOD2 signaling = experiment: Inhibition of human NOD2 signaling in HEK-Blue-hNOD2 cells (L18-MDP stimulated, SEAP reporter); assay type: cell-based; conditions: NOD2 ligand stimulation, SEAP reporter, read-out: hNOD2 IC50
Procedure: Materials: Human NOD32-expressing 1TEK293 cells, HEK-Blue™-hNOD2 cells, were developed by Invivogen (catalogue number: hkb-hnod2) using co-transfection of the human NOD2 gene and an optimized secreted embryonic alkaline phosphatase (SEAP) reporter gene into HTEK293 cells. The cell maintenance medium consisted of DMEM (Giboc, 21063-029), heat inactivated FBS, penicillin (100 U/mL), streptomycin (100 μg/mL), Normocin (100 μg/mL), Blasticidin (30 μg/mL), and Zeocin (100 μg/mL). HEK-Blue™-hNOD2 cells were transferred to assay medium consisting of DMEM (Giboc, 21063-029), heat inactivated FBS, penicillin (100 U/mL) and streptomycin (100 μg/mL) prior to stimulation. Stimulation with a NOD2 ligand, L18-MDP (Invivogen, catalogue number: tlrl-lmdp) activated NF-κB and AP-1 which induced the production of SEAP. Levels of SEAP were determined with HEK-Blue™ Detection (referred to as QUANTI-Blue solution), a cell culture medium that allows for real-time detection of SEAP. QUANTI-Blue solution was prepared by adding 1 mL of QB reagent and 1 mL of QB buffer to 98 mL of sterile H2O. Test compounds were prepared into a 10 mM DMSO solution and were serially diluted into 10 points using a 3-fold dilution in a 384 well plate using a TECAN EVO200.
Method: In a 384 well plate, 40 nL of test compound was dispensed using Echo550. HEK-Blue™-hNOD2 cells (Invivogen) were prepared into a cell suspension and 40 μL of the cell suspension (12500 cells per well) was dispensed into the 384 well plate. To activate NOD2 signaling, 40 nL of L18-MDP (final concentration of 0.5 ng/mL) was added and the plate was incubated at 37° C. in a CO2 incubator for 24 hours. After the 24-hour incubation, 5 μL of the induced HEK-Blue hNOD2 cell supernatant was transferred to a new 384-well plate, centrifuged, and 45 μL of QUANTI-Blue solution was added per well and incubated for 3 hours at 37° C. SEAP levels were measured using an Ensight at 620 nm. Percent inhibition of NOD2 signaling was determined using the following equation: (high control−test compound signal)/(High control−low control)×100. The reaction high control was determined using wells with DMSO, cells, L18-MDP, and QUANTI-Blue solution. The reaction low control was determined using wells with DMSO, cells, and QUANTI-Blue solution. 4-parametric curve fit was used to determine the test compound concentration that results in 50% reduction of L18-MDP-driven human NOD2 signaling.
Using the assay described above, inhibition of hNOD2 signaling was also evaluated for GSK 2983559 (Haile at al., J. Med. Chem. 2019, 62, 14, 6482-6494), a known RIPK2 kinase inhibitor: […]

RIPK2 enzyme = target: T1, RIPK2 enzyme (Homo sapiens, UniProt O43353); experiment: RIPK2 inhibition (ADP-Glo Kinase Assay); assay type: biochemical; conditions: RIPK2 5 nM, ATP 150 μM, MBP substrate, read-out: RIPK2 IC50
T1 construct: purchased Carna 09-128
T1 sequence (O43353 1-299 limits assumed): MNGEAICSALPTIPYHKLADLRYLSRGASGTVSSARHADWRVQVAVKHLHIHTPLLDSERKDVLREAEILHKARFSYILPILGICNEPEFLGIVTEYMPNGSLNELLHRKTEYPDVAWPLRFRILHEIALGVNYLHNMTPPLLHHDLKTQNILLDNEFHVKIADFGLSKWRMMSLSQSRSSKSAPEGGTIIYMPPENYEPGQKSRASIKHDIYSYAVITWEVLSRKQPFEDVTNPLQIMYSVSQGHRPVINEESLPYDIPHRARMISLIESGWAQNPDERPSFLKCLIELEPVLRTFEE
Method in brief: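 Human RIPK2 (5 nM) preincubated with compound 30 min at room temperature in 50 mM HEPES pH 7.5, 10 mM MgCl2, 2 mM DTT, 1 mM EGTA, 0.01% Brij-35, 0.05% BSA; native swine MBP as substrate. ADP formed quantified by ADP-Glo luminescence; percent inhibition relative to DMSO and no-enzyme controls.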

[1] = Homo sapiens, HEK-Blue hNOD2, HEK-Blue-hNOD2 cells

Row | IC50 (human NOD2 signaling; HEK-Blue-hNOD2 cells) [nM] | IC50 (RIPK2 enzyme) [nM] | IC50 (human NOD2 signaling; [1]) [nM] | Compound
1 |  | < 2.5 | 1 | CNC(=O)C(F)(F)c1ccc2nccc(Oc3cc(F)c(CC(=O)Nc4cnn(C(C)(C)C)c4)cc3C)c2c1 [Compound 573, 2-(4-(4-(2-((1-(tert-butyl)-1H-pyrazol-4-yl)amino)-2-oxoethyl)-5-fluoro-2-methylphenoxy)quinolin-6-yl)-2,2-difluoro-N-methylacetamide]
2 |  | < 2.5 | 0.4 | Cc1cc(CC(=O)Nc2cnn(C(C)(C)C)c2)c(F)cc1Oc1ccnc2ccc(-c3nc[nH]n3)cc12 [Compound 484, 2-(4-((6-(1H-1,2,4-triazol-3-yl)quinolin-4-yl)oxy)-2-fluoro-5-methylphenyl)-N-(1-(tert-butyl)-1H-pyrazol-4-yl)acetamide]
3 |  | < 2.5 | 0.8 | CCS(=N)(=O)c1ccc2nccc(Oc3ccc(CC(=O)Nc4cnn(C(C)(C)C)c4)c(F)c3C)c2c1 (single isomer, unassigned) [Compound 535, N-(1-(tert-butyl)-1H-pyrazol-4-yl)-2-(4-((6-(ethylsulfonimidoyl)quinolin-4-yl)oxy)-2-fluoro-3-methylphenyl) acetamide]
4 |  | < 2.5 | 0.6 | Cc1cc(CC(=O)Nc2cnn(C(C)(C)C)c2)c(F)cc1Oc1ccnc2ccc(C(=O)N(C)C3(C)CC3)cc12 [Compound 519, 4-(4-(2-((1-(tert-butyl)-1H-pyrazol-4-yl)amino)-2-oxoethyl)-5-fluoro-2-methylphenoxy)-N-methyl-N-(1-methylcyclopropyl)quinoline-6-carboxamide]
5 |  | < 2.5 | 31.2 | Cc1cc(CC(=O)Nc2cnn(C34CC(C3)C4)c2)cc(Cl)c1Oc1ccnc2ccc(C(N)=O)cc12 [Compound 590, 4-(4-(2-((1-(bicyclo[1.1.1]pentan-1-yl)-1H-pyrazol-4-yl)amino)-2-oxoethyl)-2-chloro-6-methylphenoxy)quinoline-6-carboxamide]
6 |  | < 2.5 | 10.8 | CNC(=O)c1cc2c(Oc3cc(F)c(CC(=O)Nc4cnn(C(C)(C)C)c4)cc3C)ccnc2cc1C [Compound 564, 4-(4-(2-((1-(tert-butyl)-1H-pyrazol-4-yl)amino)-2-oxoethyl)-5-fluoro-2-methylphenoxy)-N,7-dimethylquinoline-6-carboxamide]
7 |  | < 2.5 | 15.6 | Cc1cc(CC(=O)Nc2cnn(C(C)(C)C)c2)ccc1Oc1ccnc2ccc(C3(S(C)(=O)=O)CC3)cc12 [Compound 605, N-(1-(tert-butyl)-1H-pyrazol-4-yl)-2-(3-methyl-4-((6-(1-(methylsulfonyl)cyclopropyl)quinolin-4-yl)oxy)phenyl)acetamide]
8 |  | < 2.5 | 0.8 | CNC(=O)c1cc2c(Oc3ccc(CC(=O)Nc4cnn(C(C)(C)C)c4)cc3C(F)F)ccnc2cc1OC [Compound 579, 4-(4-(2-((1-(tert-butyl)-1H-pyrazol-4-yl)amino)-2-oxoethyl)-2-(difluoromethyl)phenoxy)-7-methoxy-N-methylquinoline-6-carboxamide]
9 |  | < 2.5 | 5.5 | Cc1cc(CC(=O)Nc2cnn(C(C)(C)C)c2)c(F)cc1Oc1ccnc2ccc(-c3ccnnc3C)cc12 [Compound 525, N-(1-(tert-butyl)-1H-pyrazol-4-yl)-2-(2-fluoro-5-methyl-4-((6-(3-methylpyridazin-4-yl)quinolin-4-yl)oxy)phenyl)acetamide]
10 | 22.4 | < 2.5 |  | Cc1cc(CC(=O)Nc2cnn(C(C)(C)C)c2)ccc1Oc1ccnc2ccc(C(C)(O)C(N)=O)cc12 (single isomer, unassigned) [Compound 616, 2-(4-(4-(2-((1-(tert-butyl)-1H-pyrazol-4-yl)amino)-2-oxoethyl)-2-methylphenoxy)quinolin-6-yl)-2-hydroxypropanamide]
11 | 19.3 | < 2.5 |  | Cc1cc(CC(=O)Nc2cnn(C(C)C(F)(F)F)c2)ccc1Oc1ccnc2ccc(S(C)(=O)=O)cc12 (single isomer, unassigned) [Compound 595, 2-(3-methyl-4-((6-(methylsulfonyl)quinolin-4-yl)oxy)phenyl)-N-(1-(1,1,1-trifluoropropan-2-yl)-1H-pyrazol-4-yl)acetamide]

The remaining lines, values behind:

Row | Compound | IC50 (human NOD2 signaling; HEK-Blue-hNOD2 cells) [nM] | IC50 (RIPK2 enzyme) [nM] | IC50 (human NOD2 signaling; [1]) [nM]
12 | Cc1c(Oc2ccnc3ccc(S(=N)(=O)C(C)(C)C)cc23)ccc(CC(=O)Nc2cnn(C(C)(C)C)c2)c1F (single isomer, unassigned) [Compound 540, N-(1-(tert-butyl)-1H-pyrazol-4-yl)-2-(2-fluoro-3-methyl-4-((6-(2-methylpropan-2-ylsulfonimidoyl)quinolin-4-yl)oxy)phenyl) acetamide] | 0.5 | < 2.5 | 
13 | [2H]C([2H])([2H])NC(=O)c1ccc2nccc(Oc3c(C)cc(CC(=O)Nc4cnn(C56CC(C5)C6)c4)cc3C)c2c1 [Compound 589, 4-(4-(2-((1-(bicyclo[1.1.1]pentan-1-yl)-1H-pyrazol-4-yl)amino)-2-oxoethyl)-2,6-dimethylphenoxy)-N-(methyl-d3)quinoline-6-carboxamide] |  | < 2.5 | 48.6
14 | [2H]C([2H])([2H])C(n1cc(NC(=O)Cc2cc(C)c(Oc3ccnc4cc(F)c(C(=O)NC)cc34)cc2F)cn1)(C([2H])([2H])[2H])C([2H])([2H])[2H] [Compound 596, 7-fluoro-4-(5-fluoro-2-methyl-4-(2-((1-(2-(methyl-d3)propan-2-yl-1,1,1,3,3,3-d6)-1H-pyrazol-4-yl)amino)-2-oxoethyl)phenoxy)-N-methylquinoline-6-carboxamide] |  | < 2.5 | 0.7
15 | [2H]C([2H])([2H])NC(=O)c1ccc2nccc(Oc3ccc(CC(=O)Nc4cnn(C(C)(C)C)c4)cc3C(F)F)c2c1 [Compound 574, 4-(4-(2-((1-(tert-butyl)-1H-pyrazol-4-yl)amino)-2-oxoethyl)-2-(difluoromethyl)phenoxy)-N-(methyl-d3)quinoline-6-carboxamide] |  | < 2.5 | 3.2
16 | CNC(=O)c1cc2c(Oc3c(C)cc(CC(=O)Nc4cnn(C(C)(C)C)c4)cc3F)ccnc2cc1F [Compound 599, 4-(4-(2-((1-(tert-butyl)-1H-pyrazol-4-yl)amino)-2-oxoethyl)-2-fluoro-6-methylphenoxy)-7-fluoro-N-methylquinoline-6-carboxamide] |  | < 2.5 | 1.7
17 | COc1cc2nccc(Oc3ccc(CC(=O)Nc4cnn(C(C)(C)C)c4)cc3C(F)F)c2cc1C(N)=O [Compound 578, 4-(4-(2-((1-(tert-butyl)-1H-pyrazol-4-yl)amino)-2-oxoethyl)-2-(difluoromethyl)phenoxy)-7-methoxy-quinoline-6-carboxamide] |  | < 2.5 | 0.7
18 | [2H]C([2H])([2H])c1cc(CC(=O)Nc2cnn(C(C)(C)C)c2)ccc1Oc1ccnc2ccc(S(=O)(=O)C([2H])([2H])[2H])cc12 [Compound 485, N-(1-(tert-butyl)-1H-pyrazol-4-yl)-2-(3-(methyl-d3)-4-((6-((methyl-d3)sulfonyl)quinolin-4-yl)oxy)phenyl)acetamide] |  | < 2.5 | 0.3
19 | [2H]C([2H])([2H])NC(=O)c1cc2c(Oc3ccc(CC(=O)Nc4cnn(C(C)(C)C)c4)cc3C)ccnc2cc1F [Compound 493, 4-(4-(2-((1-(tert-butyl)-1H-pyrazol-4-yl)amino)-2-oxoethyl)-2-methylphenoxy)-7-fluoro-N-(methyl-d3)quinoline-6-carboxamide] |  | < 2.5 | 0.2
20 | Cc1cc(CC(=O)Nc2cnn(C(C)(C)C)c2)c(F)cc1Oc1ccnc2ccc(-c3ncccc3C)cc12 [Compound 475, N-(1-(tert-butyl)-1H-pyrazol-4-yl)-2-(2-fluoro-5-methyl-4-((6-(3-methylpyridin-2-yl)quinolin-4-yl)oxy)phenyl)acetamide] |  | 4.2 | 54
